From patent US9567329B2, “High penetration prodrug compositions of 1H-imidazo[4,5-c]quinolin-4-amines and 1H-imidazo[4,5-c]quinolin-4-amine-related compounds and uses thereof” (Techfields Pharma Co., Ltd, priority 2007, dated 2017)

Legend:
[1] = tested on: herpes simplex virus Type I; assay: Anti-Herpes activity, treated for 3 days before HSV infection; format: in vivo; conditions: guinea pigs
Procedure: (§1) The evaluation of anti-Herpes activity of these prodrugs was carried out using the method described by Kern, et al. [Antimicrob. Agents Chemother. 14, 817, (1978)]. In each experiment, female guinea pigs (n=10) were anesthetized. […] Virus replication was monitored by determining the amount of virus recovered with vaginal swabs taken on day 7 after infection. […] The percent Lesion Inhibition was calculated as follows: 100-[(Sum of maximum lesion scores of treated group divided by the Sum of the scores of infected control)×100] (Table 5).

[2] = tested on: herpes simplex virus Type II; assay: as above; format: in vivo; conditions: guinea pigs
Procedure: as §1

[3] = tested on: herpes simplex virus Type I; assay: Anti-Herpes activity, treated for 5 days, first treatment just after HSV infection; format: in vivo; conditions: guinea pigs
Procedure: (§2) The evaluation of anti-Herpes activity of these prodrugs was carried out using the method described by Kern, et al. [Antimicrob. Agents Chemother. 14, 817, (1978)].
(§3) In the second experiment, female guinea pigs (n=10) were anesthetized. Herpes simplex virus (Type I or Type II, about 10^5 plaque forming units were used) was applied intravaginally to the guinea pigs using a cotton swab. […] Virus replication was monitored by determining the amount of virus recovered with vaginal swabs taken on day 7 after infection. External lesions were scored daily for ten days using the following scale: 0, no lesion; 1, redness and swelling; 2, a few small vesicles; 3, several large vesicles; 4, large ulcers and necrosis; and 5, paralysis. The percent Lesion Inhibition was calculated as follows: 100−[(Sum of maximum lesion scores of treated group divided by the Sum of the scores of infected control)×100] (Table 6).

[4] = tested on: herpes simplex virus Type II; assay: as above; format: in vivo; conditions: guinea pigs
Procedure: as §2, §3

[5] = tested on: interferon production; assay: Interferon inducing activity in guinea pigs (serum protection of fibroblasts from mengovirus); format: in vivo; conditions: serum 18 hours after treatment
[6] = tested on: herpes simplex virus Type I; assay: Anti-Herpes activity, treated for 5 days, first treatment 5 days after HSV infection; format: in vivo; conditions: guinea pigs
Procedure: as §2
(§4) In the third experiment, female guinea pigs (n=10) were anesthetized. The guinea pigs were then infected with herpes simplex virus (type I or Type II, about 10^5 plaque forming units were used) intravaginally using a cotton swab. […] External lesions were scored daily for ten days using the following scale: 0, no lesion; 1, redness and swelling; 2, a few small vesicles; 3, several large vesicles; 4, large ulcers and necrosis; and 5, paralysis. The percent Lesion Inhibition was calculated as follows: 100−[(Sum of maximum lesion scores of treated group divided by the Sum of the scores of infected control)×100] (Table 7).

[7] = tested on: herpes simplex virus Type II; assay: as above; format: in vivo; conditions: guinea pigs
Procedure: as §2, §4

[8] = In vitro penetration rate across human skin in modified Franz cells; format: in vitro ADME; conditions: 3% suspension in ethanol/pH 7.4 phosphate buffer (0.2 M) 70/30
Procedure: Penetration rates of HPPs and their parent drugs through human skin were measured in vitro by modified Franz cells. A Franz cell had two chambers, the top sample chamber and the bottom receiving chamber. The human skin tissue (360-400 μm thick) that separated the top and the receiving chambers was isolated from the anterior or posterior thigh areas.
A compound tested (0.5 mL, 3% in a mixture of ethanol and phosphate buffer (0.2M, pH 7.4) (v/v, 70/30)) was added to the sample chamber of a Franz cell. The receiving chamber contains 2 ml of 2% bovine serum albumin in saline which was stirred at 600 rpm. The amount of the tested compound penetrating the skin was determined by high-performance liquid chromatography (HPLC) method.
The lowest detectable apparent flux values in this method was 1 μg/cm^2/h.

[9] = tested on: interferon production; assay: Interferon inducing activity in guinea pigs (serum protection of fibroblasts from mengovirus); format: in vivo; conditions: serum 18 hours after treatment; remark: listed apart in the source
Procedure: Without being bound by any mechanism, the ability to induce interferon production of the pro-drugs of the invention was evaluated in guinea pigs (n=10). Untreated guinea pigs provided controls.
Each test drug was administered to real back skin of a guinea pig at a specific dose of about 0.5-4.5 mg/kg respectively.
Each treated and control guinea pig was bled 18 hours after drug treatment and its serum was assayed for interferon activity. The serum was diluted and incubated with guinea pig fibroblast cells at 37° C. overnight in 96 well microtiter plates. The incubated cells were then challenged with an inoculum of mengovirus that was sufficient to kill untreated cells in two days. Two days after such challenge, the cells were examined both microscopically and after staining with crystal violet to determine whether the cells remained intact.
Table 4 contains the results of the study with activity/ml indicating the highest dilute on of serum that protected cells from virus challenge. Untreated guinea pigs provided controls.

[10] = 0.5 mg/kg once per day for 3 days before HSV infection
[11] = 1.5 mg/kg once per day for 3 days before HSV infection
[12] = 4.5 mg/kg once per day for 3 days before HSV infection
[13] = 0.5 mg/kg once per day for 5 days
[14] = 1.5 mg/kg once per day for 5 days
[15] = 4.5 mg/kg once per day for 5 days

CCCCCCn1cnc2c(N)nc3ccccc3c21.Cl [1-hexyl-1H-imidazo[4,5-c]quinolin-4-amine hydrochloride, reference compound]
% Lesion inhibition of the parent drug, intravaginal, Herpes type I [1, 10]: 4%
% Lesion inhibition of the parent drug, transdermal, Herpes type I [1, 10]: 2%
% Lesion inhibition of the parent drug, intravaginal, Herpes type I [1, 11]: 16%
% Lesion inhibition of the parent drug, transdermal, Herpes type I [1, 11]: 3%
% Lesion inhibition of the parent drug, intravaginal, Herpes type I [1, 12]: 80%
% Lesion inhibition of the parent drug, transdermal, Herpes type I [1, 12]: 42%
% Lesion inhibition of the parent drug, intravaginal, Herpes type II [2, 10]: 5%
% Lesion inhibition of the parent drug, transdermal, Herpes type II [2, 10]: 2%
% Lesion inhibition of the parent drug, intravaginal, Herpes type II [2, 11]: 18%
% Lesion inhibition of the parent drug, transdermal, Herpes type II [2, 11]: 3%
% Lesion inhibition of the parent drug, intravaginal, Herpes type II [2, 12]: 81%
% Lesion inhibition of the parent drug, transdermal, Herpes type II [2, 12]: 45%
% Lesion inhibition of the parent drug, intravaginal, Herpes type I [3, 13]: 2%
% Lesion inhibition of the parent drug, transdermal, Herpes type I [3, 13]: 2%
% Lesion inhibition of the parent drug, intravaginal, Herpes type I [3, 14]: 11%
% Lesion inhibition of the parent drug, transdermal, Herpes type I [3, 14]: 5%
% Lesion inhibition of the parent drug, intravaginal, Herpes type I [3, 15]: 68%
% Lesion inhibition of the parent drug, transdermal, Herpes type I [3, 15]: 43%
% Lesion inhibition of the parent drug, intravaginal, Herpes type II [4, 13]: 2%
% Lesion inhibition of the parent drug, transdermal, Herpes type II [4, 13]: 2%
% Lesion inhibition of the parent drug, intravaginal, Herpes type II [4, 14]: 11%
% Lesion inhibition of the parent drug, transdermal, Herpes type II [4, 14]: 6%
% Lesion inhibition of the parent drug, intravaginal, Herpes type II [4, 15]: 71%
% Lesion inhibition of the parent drug, transdermal, Herpes type II [4, 15]: 41%
Interferon level of the parent drug, intravaginal ([5]; 0.5 mg/kg once): 286 activity/ml
Interferon level of the parent drug, transdermal ([5]; 0.5 mg/kg once): 178 activity/ml
Interferon level of the parent drug, intravaginal ([5]; 1.5 mg/kg once): 1,562 activity/ml
Interferon level of the parent drug, transdermal ([5]; 1.5 mg/kg once): 565 activity/ml
Interferon level of the parent drug, intravaginal ([5]; 4.5 mg/kg once): 24,786 activity/ml
Interferon level of the parent drug, transdermal ([5]; 4.5 mg/kg once): 1,945 activity/ml
% Lesion inhibition of the parent drug, intravaginal, Herpes type I [6, 13]: 2%
% Lesion inhibition of the parent drug, transdermal, Herpes type I [6, 13]: 2%
% Lesion inhibition of the parent drug, intravaginal, Herpes type I [6, 14]: 2%
% Lesion inhibition of the parent drug, transdermal, Herpes type I [6, 14]: 2%
% Lesion inhibition of the parent drug, intravaginal, Herpes type I [6, 15]: 35%
% Lesion inhibition of the parent drug, transdermal, Herpes type I [6, 15]: 18%
% Lesion inhibition of the parent drug, intravaginal, Herpes type II [7, 13]: 2%
% Lesion inhibition of the parent drug, transdermal, Herpes type II [7, 13]: 2%
% Lesion inhibition of the parent drug, intravaginal, Herpes type II [7, 14]: 2%
% Lesion inhibition of the parent drug, transdermal, Herpes type II [7, 14]: 2%
% Lesion inhibition of the parent drug, intravaginal, Herpes type II [7, 15]: 37%
% Lesion inhibition of the parent drug, transdermal, Herpes type II [7, 15]: 21%

CCCCn1cnc2c(N)nc3ccccc3c21.Cl [1-butyl-1H-imidazo[4,5-c]quinolin-4-amine hydrochloride, reference compound]
In vitro Penetration Rate of Parent compounds (apparent flux) [8]: 0.005 mg/cm^2/h

Cl.Nc1nc2ccccc2c2c1ncn2Cc1ccccc1 [1-benzyl-1H-imidazo[4,5-c]quinolin-4-amine hydrochloride, reference compound]
In vitro Penetration Rate of Parent compounds (apparent flux) [8]: 0.005 mg/cm^2/h

CCCCCCn1cnc2c(NC(=O)CN(C)C)nc3ccccc3c21.Cl [N,N-dimethylglycine 1-n-hexyl-1H-imidazo[4,5-c]quinolin-4-amide hydrochloride]
% Lesion inhibition of the HPP, intravaginal, Herpes type I [1, 10]: 67%
% Lesion inhibition of the HPP, transdermal, Herpes type I [1, 10]: 38%
% Lesion inhibition of the HPP, intravaginal, Herpes type I [1, 11]: 91%
% Lesion inhibition of the HPP, transdermal, Herpes type I [1, 11]: 67%
% Lesion inhibition of the HPP, intravaginal, Herpes type I [1, 12]: 95%
% Lesion inhibition of the HPP, transdermal, Herpes type I [1, 12]: 91%
% Lesion inhibition of the HPP, intravaginal, Herpes type II [2, 10]: 68%
% Lesion inhibition of the HPP, transdermal, Herpes type II [2, 10]: 40%
% Lesion inhibition of the HPP, intravaginal, Herpes type II [2, 11]: 90%
% Lesion inhibition of the HPP, transdermal, Herpes type II [2, 11]: 68%
% Lesion inhibition of the HPP, intravaginal, Herpes type II [2, 12]: 95%
% Lesion inhibition of the HPP, transdermal, Herpes type II [2, 12]: 93%
Interferon level of the HPP, transdermal ([9]; 0.5 mg/kg once): 11,756 activity/ml
Interferon level of the HPP, transdermal ([9]; 1.5 mg/kg once): 22,537 activity/ml
Interferon level of the HPP, transdermal ([9]; 4.5 mg/kg once): 61,758 activity/ml
% Lesion inhibition of the HPP, intravaginal, Herpes type I [3, 13]: 67%
% Lesion inhibition of the HPP, transdermal, Herpes type I [3, 13]: 37%
% Lesion inhibition of the HPP, intravaginal, Herpes type I [3, 14]: 91%
% Lesion inhibition of the HPP, transdermal, Herpes type I [3, 14]: 73%
% Lesion inhibition of the HPP, intravaginal, Herpes type I [3, 15]: 95%
% Lesion inhibition of the HPP, transdermal, Herpes type I [3, 15]: 90%
% Lesion inhibition of the HPP, intravaginal, Herpes type II [4, 13]: 68%
% Lesion inhibition of the HPP, transdermal, Herpes type II [4, 13]: 38%
% Lesion inhibition of the HPP, intravaginal, Herpes type II [4, 14]: 90%
% Lesion inhibition of the HPP, transdermal, Herpes type II [4, 14]: 75%
% Lesion inhibition of the HPP, intravaginal, Herpes type II [4, 15]: 95%
% Lesion inhibition of the HPP, transdermal, Herpes type II [4, 15]: 91%
Interferon level of the HPP, intravaginal ([5]; 0.5 mg/kg once): 21,857 activity/ml
Interferon level of the HPP, intravaginal ([5]; 1.5 mg/kg once): 57,147 activity/ml
Interferon level of the HPP, intravaginal ([5]; 4.5 mg/kg once): 78,569 activity/ml
% Lesion inhibition of the HPP, intravaginal, Herpes type I [6, 13]: 31%
% Lesion inhibition of the HPP, transdermal, Herpes type I [6, 13]: 28%
% Lesion inhibition of the HPP, intravaginal, Herpes type I [6, 14]: 62%
% Lesion inhibition of the HPP, transdermal, Herpes type I [6, 14]: 52%
% Lesion inhibition of the HPP, intravaginal, Herpes type I [6, 15]: 83%
% Lesion inhibition of the HPP, transdermal, Herpes type I [6, 15]: 82%
% Lesion inhibition of the HPP, intravaginal, Herpes type II [7, 13]: 28%
% Lesion inhibition of the HPP, transdermal, Herpes type II [7, 13]: 25%
% Lesion inhibition of the HPP, intravaginal, Herpes type II [7, 14]: 65%
% Lesion inhibition of the HPP, transdermal, Herpes type II [7, 14]: 55%
% Lesion inhibition of the HPP, intravaginal, Herpes type II [7, 15]: 85%
% Lesion inhibition of the HPP, transdermal, Herpes type II [7, 15]: 81%
